{"source": "patent US20020002294A1", "about": "“Estrogenic compounds as antiangiogenic agents” (priority 1997, published 2002)", "key": {"[1]": {"system": "Ovarian cell lines (especially OVCAR-3)", "experiment": "Human Tumor Cell Panel Assay in vitro, ovarian panel", "format": "cell-based", "design": "key: Most sensitive cell panes are marked with ✓", "excerpt": "(§1) The tubulin activities, breast cancer cell line activities, and the cell panels most sensitive to selected analogs are shown in Tables 3 and 4."}, "CNS cell lines": {"system": "CNS cell lines", "experiment": "Human Tumor Cell Panel Assay in vitro, CNS panel", "format": "cell-based", "design": "key: Most sensitive cell panes are marked with ✓", "excerpt": "as §1"}, "Renal cell lines": {"system": "Renal cell lines", "experiment": "Human Tumor Cell Panel Assay in vitro, renal panel", "format": "cell-based", "design": "key: Most sensitive cell panes are marked with ✓", "excerpt": "as §1"}, "Melanoma cell lines": {"system": "Melanoma cell lines", "experiment": "Human Tumor Cell Panel Assay in vitro, melanoma panel", "format": "cell-based", "design": "key: Most sensitive cell panes are marked with ✓", "excerpt": "as §1"}, "[2]": {"system": "MDA-MB-435 estrogen receptor-negative human breast carcinoma cells", "experiment": "In Vivo Tumor Growth Inhibition", "design": "species or system SCID mice", "method": "To determine the antitumor activity of 2-ME and derivatives, SCID mice were s.c. inoculated with 10^6 MDA-MB-435 estrogen receptor-negative human breast carcinoma cells. Treatment was initiated on day 12 when tumor volumes reached 75-100 mm3 in volume. Drugs were suspended in 0.5 g/100 ml of carboxymethylcellulose with sterile glass beads, vortexed for 5 minutes, and administered p.o. in a volume of 0.1 ml. Control mice received 0.1 ml of carboxymethylcellulose p.o. Serial caliper measurements of perpendicular diameters were used to calculate tumor volume using the following: (shortest diameter)^2×(longest diameter)×0.52. T/C was calculated as the volume of treated tumors over the volume of control tumors. A smaller number indicates a greater inhibition of tumor growth."}, "[3]": {"system": "8 human breast cancer cell lines", "experiment": "human tumor cell panel assay in vitro, breast panel", "format": "cell-based", "design": "key to Most Sensitive Cell Lines in Human Tumor Cell Panel Assay: Breast: Most sensitive cell panes are marked with ✓", "conditions": "for Most Sensitive Cell Lines in Human Tumor Cell Panel Assay: Breast: 8 cell lines, only MCF-7 and T-47D express estrogen and progesterone receptors", "excerpt": "as §1"}, "[4]": {"target": "T1, rat uterine cytosolic estrogen receptor (Rattus norvegicus, UniProt P06211)", "T1 construct": "from tissue; host or cells: rat uterine cytosol (per the result head)", "T1 sequence (P06211 1-600)": "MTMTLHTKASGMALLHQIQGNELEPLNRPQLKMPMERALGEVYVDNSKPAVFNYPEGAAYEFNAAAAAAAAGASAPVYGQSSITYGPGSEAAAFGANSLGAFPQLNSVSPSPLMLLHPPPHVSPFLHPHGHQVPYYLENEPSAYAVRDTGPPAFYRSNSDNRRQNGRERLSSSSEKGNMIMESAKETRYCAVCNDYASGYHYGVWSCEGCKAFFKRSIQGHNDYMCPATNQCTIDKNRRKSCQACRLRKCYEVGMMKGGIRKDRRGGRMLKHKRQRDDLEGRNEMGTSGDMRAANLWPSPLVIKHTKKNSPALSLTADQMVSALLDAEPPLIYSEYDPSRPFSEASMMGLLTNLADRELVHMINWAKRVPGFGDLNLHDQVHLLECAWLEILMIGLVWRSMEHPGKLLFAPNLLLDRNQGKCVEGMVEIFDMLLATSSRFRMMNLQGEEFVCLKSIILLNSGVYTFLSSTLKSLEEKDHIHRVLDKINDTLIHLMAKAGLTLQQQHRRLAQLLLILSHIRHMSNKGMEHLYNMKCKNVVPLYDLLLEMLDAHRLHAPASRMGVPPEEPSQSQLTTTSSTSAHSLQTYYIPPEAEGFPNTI", "experiment": "Relative Binding Affinity to estrogen receptor", "conditions": "at 0°; 3H-Estradiol=100", "excerpt": "as §1"}, "tubulin [5]": {"system": "tubulin", "experiment": "inhibition of tubulin polymerization in vitro (turbidity at 350 nm)", "format": "biochemical", "conditions": "read-out: IC50 (concentration required to inhibit tubulin polymerization by 50%); mean ± S.D.; method of Example 1", "method": "Anti-mitotic activity can be evaluated by testing the ability of an estradiol derivative to inhibit tubulin polymerization and microtubule assembly in vitro. Microtubule assembly is followed in a Gilford recording spectrophotometer (model 250 or 2400S) equipped with electronic temperature controllers. A reaction mixture (all concentrations refer to a final reaction volume of […]) contains 1.0 M monosodium glutamate (ph 6.6), 1. omg/ml (10 μM) tubulin, 1.0 mM MgCl2, 4% (v/v) dimethylsulfoxide and 20-75μM of a composition to be tested. The 0.24 ml reaction mixtures are incubated for 15 min. at 37° C. and then chilled on ice. After addition of 10p1 2.5mM GTP, the reaction mixture is transferred to a cuvette at 0° C., and a baseline established. At time zero, the temperature controller of the spectrophotometer is set at 37° C. Microtubule assembly is evaluated by increased turbity at 350 nm.\nA. Each reaction mixture (all concentrations refer to the final reaction volume of 0.25 ml) contained 1.0 M monosodium glutamate (pH 6.6), 1.0 mg/ml (10 μM) tubulin, 1.0 mM MgCl2, 4% (v/v) dimethylsulfoxide, and either 0 (curve 1), 20μM (curve 2), 40 μM (curve 3), or 75 μM (curve 4) 2-methoxyestradiol. The 0.24 ml reaction mixtures were incubated for 15 min. at 37° C and chilled on ice. After addition of 10 μl of 2.5 mM GTP the reaction mixtures were transferred to cuvettes held at 0° C., and baselines were established. At time zero the temperature controller was set at 37° C. At the times indicated by the vertical dashed lines the temperature controller was set at the indicated temperatures.\nB. Each reaction mixture contained 0.8 M monosodium glutamate (pH 6.6), 1.2 mg/ml (12 μM) tubulin, 4% (v/v) dimethylsulfoxide, and either 0 (curve 1), 1.0 FM (curve 2), 2.0 ,M (curve 3), 3.0 μM (curve 4), or 4.0 μM (curve 5) 2-methoxyestradiol. The 0.24 ml reaction mixtures were incubated for 15 min. at 26° C. and chilled on ice. After addition of 10μl of 10 mM GTP the reaction mixtures were transferred to cuvettes held at 0° C., and baselines were established. At time zero the temperature controller was set at 26° C. At the time indicated by vertical dashed line the temperature controller was set at 0° C.\nThe method is given in Example 1.\nS.D., standard deviation."}, "tubulin [6]": {"system": "tubulin", "experiment": "inhibition of [3H]colchicine binding to tubulin", "conditions": "100 μM inhibitor, 1.0 μM tubulin, 2 μM [3H]colchicine, 10 min at 37° C.; ± S.D.", "method": "Incubation was for 10 min. at 37° C.\nIncubation was for 10 mi. at 37° C. Average values obtained in three independent experiments are presented in the table, except for 2-methoxyestrone, which was only examined twice. S.D., standard deviation."}, "tubulin [7]": {"system": "tubulin", "experiment": "tubulin activities of 2-ME analogs (Table 3)", "format": "biochemical"}, "[8]": {"system": "corneal neovascularization", "experiment": "Mouse Corneal Micropocket Assay", "format": "in vivo, mice", "conditions": "150 mg/kg, daily oral, 5 days", "method": "Five- to 7-week-old SCID female mice were obtained from Massachusetts General Hospital (Boston, Mass.), Immunocompetent 7-9-week-old female C57BL/6 mice were obtained from ARCH Technical Services, Children's Hospital (Boston, Mass.). All animal studies were conducted according to protocols approved by the Animal Ethics Committee of Children's Hospital. Animals were anesthetized in a methoxyflurane (Pittman-Moore, Mundelein, Ill.) chamber prior to all procedures and were observed until fully recovered. Animals were sacrificed by a lethal dose of methoxyflurane.\nMouse Corneal Micropocket Assay To study the effect of microtubule inhibitors on angiogenesis in vivo, a model of angiogenesis in the mouse cornea was used in […] mice as described previously (Kenyon, B. B., Voest, E. E., Chen, C. C., Folkman, J., and D'Amato, R. J. A model of angiogenesis in the mouse cornea. Invest. Ophthalmol. & Visual Sci., 76: 1625-1632, 1996). In brief, after animals were anesthetized, corneal micropockets were created in both eyes with a modified von Graefe cataract knife. Into each pocket, a 0.4 mm ×0.4 mm×0.2 mm sucrose aluminum sulfate (Bukh Meditee, Copenhagen, Denmark) pellet coated with hydron polymer type NCC (IHN Sciences, New Brunswick, N.J.) containing 80 ng of bFGF or 160 ng of human recombinant […] (gift from Reprogenesis, Cambridge, Mass.) was implanted 1.0-1.2 mm from the limbal vessels (bFGF experiments) or 0.5-0.7 mm from the limbus (VEGF experiments). Erythromycin ointment (E. Fougera, Melville, N.Y.) was applied to each operated eye. The sucralfate acts to stabilize the growth factor and to slow its release from the hydron. Before testing each drug in this assay, we found the maximal dose that could be administered daily for 5 consecutive days without producing signs of toxicity (i.e., no hair loss, diarrhea, infection, lethargy, or weight loss). The treated groups received daily oral administration for 5 consecutive days of the stated dosage of 2-ME or a derivative thereof suspended in 0.5 g/100 ml of carboxymethylcellulose.\nTreatment was started on the day of pellet implantation. […] For this purpose, the eyes of the mice were examined by slit-lamp biomicroscopy. Area of corneal neovascularization was calculated using a modified formula for a half-ellipse: Area (mm^2)=[π×clock hours×length (mm)×0.2 mm]. This formula provides the most accurate approximation of the area of neovascularization that grows toward the pellet. (Kenyon, B. B., Voest, E. E., Chen, C. C., Folkman, J., and D'Amato, R. J. A model of angiogenesis in the mouse cornea. Invest. Ophthalmol. & Visual Sci., 76: 1625-1632, 1996)."}}, "data": [{"smiles": "CCOc1cc2c(cc1O)C(=NO)CC1C2CCC2(C)C(O)CCC12", "note": "(stereo not shown) [NSC 680185]", "values": [{"measurement": "Most Sensitive Cell Lines in Human Tumor Cell Panel Assay: Ovarian", "setting": "[1]", "value": "✓"}, {"measurement": "Most Sensitive Cell Lines in Human Tumor Cell Panel Assay: CNS", "setting": "CNS cell lines", "value": "✓"}, {"measurement": "Most Sensitive Cell Lines in Human Tumor Cell Panel Assay: Renal", "setting": "Renal cell lines", "value": "✓"}, {"measurement": "Most Sensitive Cell Lines in Human Tumor Cell Panel Assay: Melanoma", "setting": "Melanoma cell lines", "value": "✓"}, {"measurement": "T/C (volume of treated tumors over volume of control tumors)", "setting": "[2]; 150 mg/kg p.o., duration not stated", "value": 0.9}, {"measurement": "Most Sensitive Cell Lines in Human Tumor Cell Panel Assay: Breast", "setting": "[3]", "value": "✓"}, {"measurement": "RBA, Relative Binding Affinity to rat uterine cytosolic estrogen receptor", "setting": "[4]", "value": "<0.001"}]}, {"smiles": "COc1cc2c(cc1O)CCC1C2CCC2(C)C(=O)CCC12", "note": "(stereo not shown) [2-Methoxyestrone, reference compound]", "values": [{"measurement": "IC50", "setting": "tubulin [5]", "value": "8800 ± 1000", "unit": "nM"}, {"measurement": "Percentage Inhibition of colchicine binding to tubulin", "setting": "tubulin [6]", "value": "57 ± 6", "unit": "%"}]}, {"smiles": "C[C@]12CC[C@@H]3c4cc(OCC(F)(F)F)c(O)cc4/C(=N/O)C[C@H]3[C@@H]1CC[C@@H]2O", "note": "[NSC 681683]", "values": [{"measurement": "Most Sensitive Cell Lines in Human Tumor Cell Panel Assay: Ovarian", "setting": "[1]", "value": "✓"}, {"measurement": "Most Sensitive Cell Lines in Human Tumor Cell Panel Assay: CNS", "setting": "CNS cell lines", "value": "✓"}, {"measurement": "IC50", "setting": "tubulin [7]", "value": 500, "unit": "nM"}, {"measurement": "Most Sensitive Cell Lines in Human Tumor Cell Panel Assay: Melanoma", "setting": "Melanoma cell lines", "value": "✓"}, {"measurement": "tumor growth inhibition, comparison in words (FIG. 4)", "setting": "[2]; FIG. 4", "value": "performed approximately as well as the derivative 681684"}, {"measurement": "Most Sensitive Cell Lines in Human Tumor Cell Panel Assay: Breast", "setting": "[3]", "value": "✓"}, {"measurement": "inhibition in corneal pocket assay", "setting": "[8]", "value": 22, "unit": "%"}, {"measurement": "RBA, Relative Binding Affinity to rat uterine cytosolic estrogen receptor", "setting": "[4]", "value": "<0.0074"}]}, {"smiles": "CCOc1cc2c(cc1O)C(=NOC)CC1C2CCC2(C)C(O)CCC12", "note": "(stereo not shown) [NSC 683125]", "values": [{"measurement": "Most Sensitive Cell Lines in Human Tumor Cell Panel Assay: Renal", "setting": "Renal cell lines", "value": "✓"}, {"measurement": "Most Sensitive Cell Lines in Human Tumor Cell Panel Assay: Melanoma", "setting": "Melanoma cell lines", "value": "✓"}, {"measurement": "Most Sensitive Cell Lines in Human Tumor Cell Panel Assay: Breast", "setting": "[3]", "value": "✓"}, {"measurement": "inhibition in corneal pocket assay", "setting": "[8]", "value": 23, "unit": "%"}, {"measurement": "RBA, Relative Binding Affinity to rat uterine cytosolic estrogen receptor", "setting": "[4]", "value": "<0.001"}]}, {"smiles": "C#CC1(O)CCC2C3CCc4cc(O)ccc4C3CCC21C", "note": "(stereo not shown) [17-Ethynylestradiol, reference compound]", "values": [{"measurement": "IC50", "setting": "tubulin [5]", "value": "10000 ± 2000", "unit": "nM"}, {"measurement": "Percentage Inhibition of colchicine binding to tubulin", "setting": "tubulin [6]", "value": "50 ± 7", "unit": "%"}]}, {"smiles": "CCNc1cc2c(cc1O)CCC1C2CCC2(C)C(O)CCC12", "note": "(stereo not shown) [NSC 673652]", "values": [{"measurement": "IC50", "setting": "tubulin [7]", "value": "~2000", "unit": "nM"}, {"measurement": "IC50", "setting": "[3]; Homo sapiens, cell panel assay in vitro, two values per cell separated by /, read-out: Tumor Panel: Average log IC50(Molar) against 8 human breast cancer cell lines (converted)", "value": 2000, "unit": "nM"}, {"measurement": "Tumor Panel: Average log IC50(Molar) against 8 human breast cancer cell lines", "setting": "[3]; cell panel assay in vitro, two values per cell separated by /", "value": "−5.7/−5.7 log Molar"}, {"measurement": "RBA, Relative Binding Affinity to rat uterine cytosolic estrogen receptor", "setting": "[4]", "value": 0.35}]}]}
